Results on 7 compounds are retold here after PMC4222986 (Journal of neurochemistry, 2014).

Counter-ions that a name gives are not always drawn. Like-named read-outs stand apart in the source and are kept apart here.

Experiment [1] has as its system hD2 and hD3 dopamine receptors expressed in HEK-293 cells. The experiment is described as follows: D2 and D3 dopamine receptor combination experiments. Conditions: radioligand about Kd for hD3, 37°C 30 min, (+)-butaclamol nonspecific. It counts as binding, human.
The next experiment has as its system D2 dopamine receptor. Conditions: forskolin-dependent adenylyl cyclase; ref Tu et al., 2011a; cited from earlier work.
A further experiment relates to D3 dopamine receptor. Conditions: forskolin-dependent adenylyl cyclase; ref Tu et al., 2011a; cited from earlier work.
Experiment [2] has as its target T1, human D2 dopamine receptors (Homo sapiens, UniProt P14416). Conditions: ref Vangveravong et al., 2006; Luedtke et al., 2012; cited from earlier work.
Experiment [3] addresses T1, human D2 dopamine receptors. Conditions: ratio of Ki values of Table I.
The next experiment concerns the target rat striatal tissue (Rattus norvegicus, UniProt P19020). Description: competitive radioligand binding with [3H]LS-3-134, rat striatal tissue. Particulars: Ki values [^3H]LS-3-134 rat striatum, mean ± S.E.M., n ≥ 3, Cheng & Prusoff.
Experiment [4] addresses rat D3 dopamine receptors (Rattus norvegicus, UniProt P19020). The experiment is described as follows: competitive radioligand binding with [3H]LS-3-134, rD3 HEK-293.
Experiment [5] has as its target T2, human D3 dopamine receptors (Homo sapiens, UniProt P35462). Description: competitive radioligand binding with [3H]LS-3-134, hD3 HEK-293.
Another experiment has as its system D2 and D3 receptors. Conditions: humans; ref Tziortzi et al., 2011; Payer et al., 2014a,b; cited from earlier work.
In experiment [6] the target is T2, human D3 dopamine receptors. Conditions: ref Tu et al., 2011a; cited from earlier work.
The target is the same in experiment [7]. Description: [125I]IABN radioligand binding, human D3 receptors stably expressed in HEK cells. Particulars: ratio of Ki values of Table I.
Setting [8] is: Ki values [^3H]LS-3-134 rD3-HEK 293, mean ± S.E.M., n ≥ 3, Cheng & Prusoff.

rat D3 dopamine receptors, sequence (P19020 whole entry): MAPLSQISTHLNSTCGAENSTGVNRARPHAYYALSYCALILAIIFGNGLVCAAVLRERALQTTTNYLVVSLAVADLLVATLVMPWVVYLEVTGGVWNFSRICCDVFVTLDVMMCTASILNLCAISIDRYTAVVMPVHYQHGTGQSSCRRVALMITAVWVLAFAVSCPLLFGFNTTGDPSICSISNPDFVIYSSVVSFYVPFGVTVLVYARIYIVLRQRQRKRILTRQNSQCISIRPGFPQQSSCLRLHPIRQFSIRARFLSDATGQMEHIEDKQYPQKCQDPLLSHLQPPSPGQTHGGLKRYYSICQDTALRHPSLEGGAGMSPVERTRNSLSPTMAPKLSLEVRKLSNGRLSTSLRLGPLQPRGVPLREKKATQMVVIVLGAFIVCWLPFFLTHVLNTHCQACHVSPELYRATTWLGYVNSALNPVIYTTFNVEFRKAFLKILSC
rat striatal tissue, sequence (P19020 whole entry): as above
T2 sequence (P35462 whole entry): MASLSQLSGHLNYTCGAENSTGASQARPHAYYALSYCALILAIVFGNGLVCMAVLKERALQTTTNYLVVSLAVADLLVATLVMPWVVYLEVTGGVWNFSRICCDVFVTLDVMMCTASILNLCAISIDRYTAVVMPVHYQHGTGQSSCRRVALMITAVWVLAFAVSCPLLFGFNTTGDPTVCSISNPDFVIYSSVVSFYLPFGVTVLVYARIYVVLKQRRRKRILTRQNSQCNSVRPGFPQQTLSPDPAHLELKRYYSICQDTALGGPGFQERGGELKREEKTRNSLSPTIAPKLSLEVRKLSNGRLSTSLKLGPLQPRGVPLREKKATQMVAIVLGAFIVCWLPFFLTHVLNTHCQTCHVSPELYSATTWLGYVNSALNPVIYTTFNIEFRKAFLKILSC
T1 sequence (P14416 whole entry): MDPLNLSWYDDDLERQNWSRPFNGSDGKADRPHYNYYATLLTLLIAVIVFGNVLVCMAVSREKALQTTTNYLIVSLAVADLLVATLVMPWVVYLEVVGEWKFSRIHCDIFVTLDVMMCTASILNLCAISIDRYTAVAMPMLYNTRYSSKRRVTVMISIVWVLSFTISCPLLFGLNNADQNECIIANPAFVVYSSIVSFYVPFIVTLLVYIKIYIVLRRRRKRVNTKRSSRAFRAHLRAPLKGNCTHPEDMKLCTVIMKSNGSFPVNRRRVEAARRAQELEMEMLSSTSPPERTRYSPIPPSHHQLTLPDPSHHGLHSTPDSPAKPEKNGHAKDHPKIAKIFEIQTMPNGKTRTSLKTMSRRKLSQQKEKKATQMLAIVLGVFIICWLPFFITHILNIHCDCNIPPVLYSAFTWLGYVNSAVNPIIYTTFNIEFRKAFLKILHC

Regarding `CCN1CCC[C@H]1CNC(=O)c1c(O)c(Cl)cc(Cl)c1OC` (racemic) [[^3H]raclopride], the “specific binding on adding increasing amounts of hD2 membranes to constant hD3” value in experiment [1] is “increased specific binding was observed”.
With `COc1cc([125I])cc(C(=O)NC2CC3CCCC(C2)N3Cc2ccccc2)c1OC` (stereo not shown) [[^125I]IABN], the “specific binding on adding increasing amounts of hD2 membranes to constant hD3” value in experiment [1] is reported as “increased specific binding was observed”.
On to `O=C(NCCCCN1CCN(c2ccccc2OCCF)CC1)c1ccc(-c2ccsc2)cc1` [LS-3-134], for which, in the experiment on D2 dopamine receptor, the “% of full agonist activity at D2” value is 29%. Besides, the “% of full agonist activity at D3” value with D3 dopamine receptor was 35%.
As a reminder, the Ki is the equilibrium dissociation constant of an inhibitor or competing ligand from its target. A higher Ki goes with lower affinity. Consider `COc1ccc2[nH]cc(CN3CCC(O)(c4ccc(SC)cc4)CC3)c2c1` [SV 293, 1-((5-methoxy-1H-indol-3-yl)methyl)-4-(4-(methylthio)phenyl)piperidin-4-ol], for which, in experiment [2], the “selectivity for hD2 dopamine receptors compared to hD3” value is listed as 100 fold. Also, the “Binding Selectivity D3:D2” value in experiment [3] is 105. Further, the “Binding Selectivity D4:D2” value in [3] is 103. In addition, the Ki on rat striatal tissue came out at 323 ± 49.1 nM; in experiment [4] (setting [8]), 892 ± 44.2 nM; in experiment [5] (Ki values [^3H]LS-3-134 hD3-HEK 293, mean ± S.E.M., n ≥ 3, Cheng & Prusoff) it was 324 ± 39.2 nM.
Turning to `CCCN1CCO[C@@H]2c3cc(O)ccc3CC[C@H]21` [[^11C](+)-PHNO], the “receptors labelled in PET imaging” value in the experiment on D2 and D3 receptors was “label both D2 and D3 receptors”.
`COc1ccccc1N1CCN(CCCCNC(=O)c2ccc(N(C)C)cc2)CC1` [WC 10, 4-(dimethylamino)-N-(4-(4-(2-methoxyphenyl)piperazin-1-yl)butyl)benzamide]: the Ki at rat striatal tissue came to 2.46 ± 0.19 nM; in [4], 5.71 ± 0.81 nM; in [5], 1.25 ± 0.36 nM. In experiment [6], the “D3 vs. D2 dopamine receptor subtype binding selectivity” value is given as 43 fold. In [7], the “Binding Selectivity D2:D3” value is reported as 43. Besides, the “Binding Selectivity D4:D3” value in experiment [7] is 1120.
`CCc1cc(Cl)c(OC)c(C(=O)NC[C@@H]2CCCN2CC)c1O` [Eticlopride, S-(−)-3-chloro-5-ethyl-N-[(1-ethyl-2-pyrrolidinyl)methyl]-6-hydroxy-2-methoxybenzamide hydrochloride]: the Ki was 0.37 ± 0.09 nM on rat striatal tissue and 0.12 ± 0.05 nM in [4] (setting [8]).
